# Calls of active or inactive are those of the source. The rule behind the calls is not given here.
# Key:
# Mus musculus [1] = experiment: Antinociceptive effect in Kunming mouse assessed as inhibition of acetic acid-induced writhing response at 20 mg/kg, sc administered 30 mins prior to acetic acid challenge measured 5 mins post injection for 15 mins; format: functional
# Mus musculus [2] = experiment: Antinociceptive effect in Kunming mouse assessed as inhibition of acetic acid-induced writhing response at 20 mg/kg, ip administered 30 mins prior to acetic acid challenge measured 5 mins post injection for 15 mins; format: functional
# Mus musculus [3] = experiment: Antinociceptive activity in ICR mouse assessed as reduction in licking and biting time during second phase at 10 mg/kg, ip administered 10 mins prior to formalin challenge measured for 10 to 30 mins (reference value: 178 +/- 19 s); format: functional
# Mus musculus [4] = experiment: Antinociceptive effect in C57BL/6 mouse assessed as inhibition of spared nerve injury-induced neuropathic pain response at 10 to 40 mg/kg, ip measured after 5 to 7 days of recovery by Von Frey filament assay; format: functional, organism-based
# Mus musculus [5] = experiment: Antinociceptive effect in Kunming mouse assessed as inhibition of acetic acid-induced writhing response at 100 mg/kg, sc administered 30 mins prior to acetic acid challenge measured 5 mins post injection for 15 mins; format: functional
# Mus musculus [6] = experiment: Antinociceptive effect in Kunming mouse assessed as inhibition of acetic acid-induced writhing response at 100 mg/kg, ip administered 30 mins prior to acetic acid challenge measured 5 mins post injection for 15 mins; format: functional
# Mus musculus [7] = experiment: Antinociceptive activity in ICR mouse assessed as reduction in licking and biting time during second phase at 10 mg/kg, ip administered 10 mins prior to formalin challenge measured for 10 to 30 mins (reference value: 159 +/- 15 s); format: functional
# Mus musculus [8] = experiment: Antinociceptive activity in ICR mouse assessed as reduction in licking and biting time during first phase at 10 mg/kg, ip administered 10 mins prior to formalin challenge measured for 10 mins (reference value: 156 +/- 8 s); format: functional
# Mus musculus [9] = experiment: Antinociceptive activity in ICR mouse assessed as reduction in licking and biting time during first phase at 20 mg/kg, ip administered 10 mins prior to formalin challenge measured for 10 mins (reference value: 156 +/- 8 s); format: functional
# Mus musculus [10] = experiment: Antinociceptive activity in ICR mouse assessed as reduction in licking and biting time during second phase at 10 mg/kg, ip administered 10 mins prior to formalin challenge measured for 10 to 30 mins (reference value: 159 +/- 25 s); format: functional
# Mus musculus [11] = experiment: Antinociceptive activity in ICR mouse assessed as reduction in licking and biting time during second phase at 20 mg/kg, ip administered 10 mins prior to formalin challenge measured for 10 to 30 mins (reference value: 159 +/- 25 s); format: functional
# Mus musculus [12] = experiment: Antinociceptive activity in ip dosed ICR mouse assessed as reduction in licking and biting time during first phase administered 10 mins prior to formalin challenge measured for 10 mins relative to vehicle control; format: functional, organism-based
# Mus musculus [13] = experiment: Antinociceptive activity in ip dosed ICR mouse assessed as reduction in licking and biting time during second phase administered 10 mins prior to formalin challenge measured for 10 to 30 mins relative to vehicle control; format: functional, organism-based
# Mus musculus [14] = experiment: Antinociceptive effect in C57BL/6 mouse assessed as inhibition of spared nerve injury-induced neuropathic pain response at 10 to 20 mg/kg, ip measured after 5 to 7 days of recovery by Von Frey filament assay; format: functional, organism-based
# Mus musculus [15] = experiment: Antinociceptive effect in C57BL/6 mouse assessed as inhibition of spared nerve injury-induced neuropathic pain response at 100 mg/kg, ip measured after 5 to 7 days of recovery by Von Frey filament assay; format: functional, organism-based
compound,measurement,setting,value
COc1cc([C@H]2[C@H](C(=O)O[C@@H]3C[C@@H]4[C@@H](CN(C)C[C@H]4C)[C@@H]3C)[C@H](c3ccc(O)c(OC)c3)[C@H]2C(=O)O[C@@H]2C[C@@H]3[C@@H](CN(C)C[C@H]3C)[C@@H]2C)ccc1O,inhibition in vivo at 20 mg/kg,Mus musculus [1],65.1%
C=C1CN(C)C[C@H]2[C@H](C)[C@H](OC(=O)[C@H]3[C@H](c4ccc(O)c(OC)c4)[C@H](C(=O)O[C@@H]4C[C@H]5C(=C)CN(C)C[C@H]5[C@@H]4C)[C@H]3c3ccc(O)c(OC)c3)C[C@@H]12,inhibition in vivo at 20 mg/kg,Mus musculus [1],77.8%
same,inhibition in vivo at 20 mg/kg,Mus musculus [2],89.4%
same,Time,Mus musculus [3],87 s
same,inhibition,Mus musculus [4],Active
CC(=O)Oc1ccccc1C(=O)O [ASPIRIN DL-LYSINE],inhibition in vivo at 100 mg/kg,Mus musculus [5],81.9%
same,inhibition in vivo at 100 mg/kg,Mus musculus [6],85.4%
COc1cc([C@H]2[C@H](C(=O)OCCC3CCN(C)CC3)[C@H](c3ccc(O)c(OC)c3)[C@H]2C(=O)OCCC2CCN(C)CC2)ccc1O,inhibition in vivo at 20 mg/kg,Mus musculus [1],22.4%
COc1cc([C@H]2[C@H](C(=O)OCC3CCN(C)CC3)[C@H](c3ccc(O)c(OC)c3)[C@H]2C(=O)OCC2CCN(C)CC2)ccc1O,inhibition in vivo at 20 mg/kg,Mus musculus [1],75.7%
same,Time,Mus musculus [7],95 s
same,inhibition,Mus musculus [4],Active
CCCCN1C[C@H]2[C@H](C)[C@H](OC(=O)[C@H]3[C@H](c4ccc(O)c(OC)c4)[C@H](C(=O)O[C@@H]4C[C@@H]5[C@@H](CN(CCCC)C[C@@H]5C)[C@@H]4C)[C@H]3c3ccc(O)c(OC)c3)C[C@H]2[C@@H](C)C1,inhibition in vivo at 20 mg/kg,Mus musculus [1],13.1%
CCCN1C[C@H]2[C@H](C)[C@H](OC(=O)[C@H]3[C@H](c4ccc(O)c(OC)c4)[C@H](C(=O)O[C@@H]4C[C@@H]5[C@@H](CN(CCC)C[C@@H]5C)[C@@H]4C)[C@H]3c3ccc(O)c(OC)c3)C[C@H]2[C@@H](C)C1,inhibition in vivo at 20 mg/kg,Mus musculus [1],48.2%
COc1cc([C@H]2[C@H](C(=O)OC3CCN(C)CC3)[C@H](c3ccc(O)c(OC)c3)[C@H]2C(=O)OC2CCN(C)CC2)ccc1O,inhibition in vivo at 20 mg/kg,Mus musculus [1],41.2%
C=CCN1C[C@H]2[C@H](C)[C@H](OC(=O)[C@H]3[C@H](c4ccc(O)c(OC)c4)[C@H](C(=O)O[C@@H]4C[C@@H]5[C@@H](CN(CC=C)C[C@@H]5C)[C@@H]4C)[C@H]3c3ccc(O)c(OC)c3)C[C@H]2[C@@H](C)C1,inhibition in vivo at 20 mg/kg,Mus musculus [1],70.6%
COc1cc([C@H]2[C@H](C(=O)O[C@@H]3C[C@@H]4[C@@H](CN(C)C[C@@H]4C)[C@@H]3C)[C@H](c3ccc(O)c(OC)c3)[C@H]2C(=O)O[C@@H]2C[C@@H]3[C@@H](CN(C)C[C@@H]3C)[C@@H]2C)ccc1O [INCARVILLATEINE],inhibition in vivo at 20 mg/kg,Mus musculus [1],69.2%
same,inhibition in vivo at 20 mg/kg,Mus musculus [2],78.5%
same,Time,Mus musculus [8],101 s
same,Time,Mus musculus [9],51 s
same,Time,Mus musculus [10],67 s
same,Time,Mus musculus [11],1 s
same,Activity,Mus musculus [12],Dose-dependent effect
same,Activity,Mus musculus [13],Dose-dependent effect
same,inhibition,Mus musculus [14],Active
COc1cc([C@H]2[C@H](C(=O)O[C@@H]3C[C@@H]4[C@@H](CN(CC5CC5)C[C@@H]4C)[C@@H]3C)[C@H](c3ccc(O)c(OC)c3)[C@H]2C(=O)O[C@@H]2C[C@@H]3[C@@H](CN(CC4CC4)C[C@@H]3C)[C@@H]2C)ccc1O,inhibition in vivo at 20 mg/kg,Mus musculus [2],88.1%
NCC1(CC(=O)O)CCCCC1,inhibition,Mus musculus [15],Active

# — ChEMBL document CHEMBL3808282, “Gram Scale Syntheses of (-)-Incarvillateine and Its Analogs. Discovery of Potent Analgesics for Neuropathic Pain” (2016)
